Reference: patent US10478431B2, “Methods for treating a cytomegalovirus infection” (priority 2014, dated 2019)
“Also recorded” adds a separate entry of the source. Structures can show the parent of a compound that is named as a salt.

What was measured:
[1] = test system: IE2 negative feedback (MIEP-IE2-IRES-GFP construct, LM2ig); assay: IE2 negative feedback reporter: cells harboring LM2ig (MIEP-IE2-IRES-GFP), GFP by flow cytometry; assay type: cell-based, human CMV (hCMV)
Experimental: MRCS fibroblasts and life-extended human foreskin fibroblasts (HFFs) (Bresnahan and Shenk, 2000) were maintained in Dulbecco's Modified Eagle's Medium (DMEM) supplemented with 10% fetal bovine serum (FBS) and 50 U/ml penicillin-streptomycin at 37° C. and 5% CO2 in a humidified incubator. ARPE-19 cells were maintained in a 1:1 mixture of DMEM/F-12 (Mediatech Inc.) with 10% FBS (HyClone) and 50 U/ml Penicillin-Streptomycin (Mediatech Inc.). Cells were treated with a final concentration of 1 mM valproic acid (VPA) (Calbiochem™), resuspended in dimethylsulfoxide, for approximately 24 hours before imaging. Cells were treated with a final concentration of 400 nM TSA (Sigma-Aldrich) resuspended in dimethylsulfoxide, for 20-24 hours, a final concentration of 10 ng/mL TNF-α (Sigma-Aldrich) resuspended in phosphate-buffered saline (PBS), or a final concentration of 1 mM VPA (Calbiochem) for approximately 24 hours before imaging.
Standard lentiviral cloning was used to create minimal major immediate early (MIE) circuits (Dull et al., 1998). The minimal MIEP-IE2-GFP and MIEP-GFP circuits are driven by a full-length ˜2.5 kb MIE promoter-enhancer (MIEP) that spans the sequence from the MIEP modulator at the 5′ edge to the junction of immediate early (IE) exons 1 and 2. The MIEP was polymerase chain reaction (PCR)-cloned from AD169 into pLEIGW in place of the EF1a promoter. This full-length MIEP drives an IE2-IRES-GFP or mCherry-IRES-GFP cassette. IE2 was cloned from pRSV-IE86 (a gift from Jay Nelson). ARPE-19 cells were infected and fluorescence-activated cell sorter (FACS) sorted for green fluorescent protein (GFP) fluorescence to create stably expressing cell lines. Cells were treated with Trichostatin-A (TSA) for 17 hours, and GFP expression was quantified by flow cytometry. Live cells were gated by forward-versus-side scattering on a FacsCalibur™ cytometer (BD Biosciences) and mean fluorescence intensity recorded. At least 20,000 live cells were recorded for each experiment and data was analyzed in FlowJo™ (Treestar Inc.).
See WO 2014/127148 for descriptions of MIEP-IE2-reporter constructs. For example, LM2ig construct is depicted in FIG. 7 of WO 2014/127148.

[2] = test system: CMV AD169 (a laboratory strain of HCMV); assay: Human CMV viral replication kinetics in MRCS cells (TCID50, PFU/ml); assay type: cell-based, human CMV (hCMV)
Experimental: MRCS cells were seeded into cell culture plates and maintained for 1 to 2 days until cells reached confluency at ˜5×10^4 cells per well. The monolayers were then infected with recombinant virus human CMV IE2-YFP or CMV-GFP as a control. HCMV IE2-YFP was used as the control virus for replication kinetics with the Δcrs IE2-YFP recombinant virus. Cells were infected at a multiplicity of infection (MOI) of 1, 0.2, or 0.1, as indicated. Inoculum was prepared using virus stocks diluted in culture media, and adsorbed onto cells in a volume of 200 μl for one hour at 37° C. in a humidified CO2 incubator. Inoculum was then removed and replaced with one mL of fresh media. The amount of infectious virus to prepare inoculum was based on plaque assay titrations (Bolovan-Fritts and Wiedeman, 2001) of virus stocks and is shown as time point 0 in each figure. For each time point three separate sample wells were collected. Infectious cell-free virus was collected by harvesting medium from infected culture wells at indicated time points and stored at −80° C. To measure replication, samples were thawed and prepared as a 10-fold serial dilution series in culture media, then analyzed by TCID50. The results were then converted to plaque-forming units per ml (PFU/ml). Error ranges were calculated using standard deviation.

[3] = test system: latent CMV in N-Tera2 cells; assay: N-Tera2 latency assay (reactivation of latent CMV); assay type: cell-based, human CMV (hCMV); conditions: FIG. 4 lower panel, trihydrochloride hydrate
Experimental: Reactivation of latent CMV in N-Tera2 cells was conducted as previously described in (Meier, 2001).

Smith strain of MCMV = assay: Murine CMV replication kinetics in BALB/c mice; assay type: in vivo
Experimental: Murine CMV (MCMV) replication kinetics were performed in BALB/c mice using the Smith strain of MCMV as previously described (Orr et al., 2010) and on NIH 3T3 cells using same methods as for HCMV. Rhesus CMV (RhCMV) viral replication kinetics were performed on rhesus fibroblast cells as described in (Lilja et al., 2008).

mCMV CRS sequence = assay: bisBenzimide binding assay (fluorescence), mCMV CRS saturation curve; conditions: BB33258 titrated from 10 μM to 1 nM; FIG. 18
Experimental: Serial dilutions for each CRS sequence were prepared. Each CRS sequence was held constant at 10 μM while BB33258 was titrated from 10 μM to 1 nM. All assays were performed at room temperature (˜25° C. in DPBS). Serial dilutions were pipetted into 96-well glass bottom plate and allowed to equilibrate for 3 hours at room temperature in the dark. Plates were then assayed for fluorescence intensity using Perkin-Elmer EnSpyre multimode plate reader. Scans from 370 nm to 580 nm for each sequence were obtained. Dilution concentrations and BB33258 combinations that saturated the PMT were excluded.

[4] = test system: DNA CRS target with purified IE2 protein; assay: Gel shift assay (EMSA) of IE2-CRS; assay type: binding; conditions: various amounts of BB33258; FIG. 20
Experimental: IE2-MBP expressed in BL21 cells was purified using amylose column, and EMSA was performed for IE2-crs interaction as described in Macias, M. P., Stinski, M. F., 1993. PNAS. 90, 707-711.

[5] = test system: clinically derived CMV isolate TB40E; assay: HCMV TB40E virus replication and spread on epithelial cell monolayers; assay type: cell-based, human CMV (hCMV); conditions: FIG. 22
Excerpt: (Cells show more CPE with drug treatment and appear more distorted and larger.) Infection at MOI of 1 on confluent epithelial cell monolayers. Images on day 5, post infection.

CN1CCN(c2ccc3[nH]c(-c4ccc5[nH]c(-c6ccc(O)cc6)nc5c4)nc3c2)CC1 [Hoechst 33258, 2′-(4-hydroxyphenyl)-5-(4-methyl-1-piperazinyl)-2,5′-bi-1H-benzimidazole trihydrochloride hydrate]
breaking of the IE2 negative feedback circuit ([1]; 24-28 hour exposure): breaks the IE2 negative feedback circuit
quiescent MIEP-driven expression in a reporter cell line ([1]; ARPE-19 cells harboring LM2ig, 20 μM Hoechst 33258, FACS, FIG. 4 upper panel): activated quiescent MIEP-driven expression
number of GFP-positive cells ([1]; ARPE-19 cells harboring LM2ig, Hoechst 33258 with or without VPA, FIG. 7): induced an increase
mean fluorescence intensity (MFI) ([1]; ARPE-19 cells harboring LM2ig, Hoechst 33258 with or without VPA, FIG. 8): increased MFI
production of IE2, as measured by GFP expression (GFP mean fluorescence intensity; GFP-MFI) ([1]; ARPE-19 cells stably transduced with LM2ig, FIG. 1, FIG. 2): increased production of IE2
reactivation of the LM2ig minimal circuit ([1]; Hoechst 33258: after 24 hours): strongly reactivates
breaking of the circuit and reactivation of the promoter from an off (silenced) state ([1]; long-term (e.g., 8-10 days) exposure): breaks the circuit and reactivates the promoter
reduction of hCMV replication ([2]; FIG. 10): more than 100 fold
HCMV viral replication ([2]; MRCS cells, CMV AD169, 5, 10 or 20 μM Hoechst 33258, data in PFU/ml, FIG. 3, trihydrochloride hydrate): inhibited HCMV viral replication; also recorded: significantly reduced HCMV replication
reactivation of latent CMV [3]: reactivated latent CMV; also recorded: reactivation of latent HCMV
reduction of mCMV replication (Smith strain of MCMV): ~5 fold
saturation of binding to mCMV CRS (mCMV CRS sequence): did not saturate within the range of concentrations tested
binding to the CRS sequence (EMSA) [4]: binding
virus fitness (TB40E replication levels) ([5]; MOI of 1, confluent epithelial cell monolayers): virus fitness loss
cell to cell spread (IE2-YFP positive cells) ([5]; MOI of 1, images on day 5 post infection): inhibits cell to cell spread
